Measurements as given in ChEMBL document CHEMBL1201862, “PubChem BioAssay data set” (2004).
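Growth conditions: 96-well plates. Treatment: test compound, 48 hours, 5 concentrations. Analysis: linear interpolation between bracketing concentrations; unreached endpoints set to highest concentration. At the GI50, growth is halved.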 Active and inactive are the calls of the source. Rule as the data show it: active = GI50 up to about 1.1 µM and inactive = higher.

What was measured:
Assay in all cases: NCI-60 cell line screen, 48 h
EKVX = test system: EKVX
RXF 631 = test system: RXF 631
UACC-257 = test system: UACC-257
OVCAR-5 = test system: OVCAR-5
786-0 = test system: 786-0
DMS-114 = test system: DMS-114
LXFL 529 = test system: LXFL 529
KM-20L2 = test system: KM-20L2
U-251 = test system: U-251
K562 = test system: K562
SNB-75 = test system: SNB-75
CAKI-1 = test system: CAKI-1
A549 = test system: A549
IGROV-1 = test system: IGROV-1
SK-OV-3 = test system: SK-OV-3
UO-31 = test system: UO-31
A498 = test system: A498
HOP-62 = test system: HOP-62
NCI-H522 = test system: NCI-H522
SF-268 = test system: SF-268
NCI-H23 = test system: NCI-H23
SNB-78 = test system: SNB-78
KM12 = test system: KM12
SNB-19 = test system: SNB-19
SF-295 = test system: SF-295
RXF 393 = test system: RXF 393
OVCAR-4 = test system: OVCAR-4
DMS-273 = test system: DMS-273
SK-MEL-5 = test system: SK-MEL-5
ACHN = test system: ACHN
Malme-3M = test system: Malme-3M
RPMI-8226 = test system: RPMI-8226
TK-10 = test system: TK-10
SN12C = test system: SN12C
HT-29 = test system: HT-29
COLO 205 = test system: COLO 205
HCT-15 = test system: HCT-15
SF-539 = test system: SF-539
SW-620 = test system: SW-620
NCI-H226 = test system: NCI-H226
CCRF-CEM = test system: CCRF-CEM
OVCAR-8 = test system: OVCAR-8
SK-MEL-28 = test system: SK-MEL-28
M14 = test system: M14
MOLT-4 = test system: MOLT-4
HL-60 = test system: HL-60
UACC-62 = test system: UACC-62
M19-MEL = test system: M19-MEL
OVCAR-3 = test system: OVCAR-3
NCI-H460 = test system: NCI-H460
HCC 2998 = test system: HCC 2998
LOX IMVI = test system: LOX IMVI
SK-MEL-2 = test system: SK-MEL-2

`C[C@H]1NC(=O)C2CCCCN2C(=O)CN(C)C(=O)CNC(=O)C2CCCCN2C(=O)[C@@H](NC(=O)c2nc3ccccc3cc2O)[C@@H](C)NC(=O)C2CCCCN2C(=O)CN(C)C(=O)CNC(=O)[C@@H]2CCCCN2C(=O)C1NC(=O)c1nc2ccccc2cc1O` (stereo partly drawn) was tested, and the GI50 (EKVX) was 668 nM (active), the GI50 (RXF 631) was 164 nM (active) and the GI50 (UACC-257) was 185 nM (active). The GI50 (OVCAR-5) was 1910 nM (inactive), the GI50 (786-0) was 203 nM (active) and the GI50 (DMS-114) was 230 nM (active). For the same molecule, the GI50 (LXFL 529) was 140 nM (active), the GI50 (KM-20L2) was 378 nM (active) and the GI50 (U-251) was 15.3 nM (active). The GI50 (K562) was 231 nM (active), the GI50 (SNB-75) was 59.8 nM (active) and the GI50 (CAKI-1) was 136 nM (active). The GI50 (A549) was 318 nM (active), the GI50 (IGROV-1) was 283 nM (active) and the GI50 (SK-OV-3) was 482 nM (active). The GI50 (UO-31) was 250 nM (active), the GI50 (A498) was 166 nM (active) and the GI50 (HOP-62) was 251 nM (active). For the same molecule, the GI50 (NCI-H522) was 106 nM (active), the GI50 (SF-268) was 186 nM (active) and the GI50 (NCI-H23) was 242 nM (active). For the same molecule, the GI50 (SNB-78) was 86.5 nM (active), the GI50 (KM12) was 270 nM (active) and the GI50 (SNB-19) was 241 nM (active). For the same molecule, the GI50 (SF-295) was 25.8 nM (active), the GI50 (RXF 393) was 46.3 nM (active) and the GI50 (OVCAR-4) was 389 nM (active). The GI50 (DMS-273) was 25.5 nM (active), the GI50 (SK-MEL-5) was 155 nM (active) and the GI50 (ACHN) was 232 nM (active). For the same molecule, the GI50 (Malme-3M) was 182 nM (active), the GI50 (RPMI-8226) was 274 nM (active) and the GI50 (TK-10) was 525 nM (active). The GI50 (SN12C) was 313 nM (active), the GI50 (HT-29) was 347 nM (active) and the GI50 (COLO 205) was 252 nM (active). For the same molecule, the GI50 (HCT-15) was 2750 nM, the GI50 (SF-539) was 201 nM (active) and the GI50 (SW-620) was 225 nM (active). The GI50 (NCI-H226) was 66.4 nM (active), the GI50 (CCRF-CEM) was 1020 nM (active) and the GI50 (OVCAR-8) was 193 nM (active). For the same molecule, the GI50 (SK-MEL-28) was 212 nM (active), the GI50 (M14) was 241 nM (active) and the GI50 (MOLT-4) was 2590 nM (inactive). The GI50 (HL-60) was 2030 nM (inactive), the GI50 (UACC-62) was 22.9 nM (active) and the GI50 (M19-MEL) was 181 nM (active). For the same molecule, the GI50 (OVCAR-3) was 209 nM (active), the GI50 (NCI-H460) was 188 nM (active) and the GI50 (HCC 2998) was 204 nM (active). The GI50 (LOX IMVI) was 169 nM (active) and the GI50 (SK-MEL-2) was 81.7 nM (active).
